Legend:
mGlu4 [1] = target: T1, mGlu4 (Rattus norvegicus, UniProt P31423); assay: Co-operative assay: enhancement of [3H]3 binding by orthosteric agonists
mGlu4 [2] = target: T1, mGlu4; assay: mGlu4 competitive binding assay against [3H]ML128; details: 10 nM compound
mGlu4 [3] = target: T1, mGlu4; assay: Temperature dependency of [3H]3 binding; details: 10 nM [3H]3, 100 nM Glu, 30 min
mGlu4 [4] = target: T1, mGlu4; assay: Ion dependency of [3H]3 binding; details: 10 nM [3H]3, 30 μM L-AP4, Hepes buffer with or without NaCl, MgCl2, KCl, CaCl2

T1 sequence (P31423 33-912): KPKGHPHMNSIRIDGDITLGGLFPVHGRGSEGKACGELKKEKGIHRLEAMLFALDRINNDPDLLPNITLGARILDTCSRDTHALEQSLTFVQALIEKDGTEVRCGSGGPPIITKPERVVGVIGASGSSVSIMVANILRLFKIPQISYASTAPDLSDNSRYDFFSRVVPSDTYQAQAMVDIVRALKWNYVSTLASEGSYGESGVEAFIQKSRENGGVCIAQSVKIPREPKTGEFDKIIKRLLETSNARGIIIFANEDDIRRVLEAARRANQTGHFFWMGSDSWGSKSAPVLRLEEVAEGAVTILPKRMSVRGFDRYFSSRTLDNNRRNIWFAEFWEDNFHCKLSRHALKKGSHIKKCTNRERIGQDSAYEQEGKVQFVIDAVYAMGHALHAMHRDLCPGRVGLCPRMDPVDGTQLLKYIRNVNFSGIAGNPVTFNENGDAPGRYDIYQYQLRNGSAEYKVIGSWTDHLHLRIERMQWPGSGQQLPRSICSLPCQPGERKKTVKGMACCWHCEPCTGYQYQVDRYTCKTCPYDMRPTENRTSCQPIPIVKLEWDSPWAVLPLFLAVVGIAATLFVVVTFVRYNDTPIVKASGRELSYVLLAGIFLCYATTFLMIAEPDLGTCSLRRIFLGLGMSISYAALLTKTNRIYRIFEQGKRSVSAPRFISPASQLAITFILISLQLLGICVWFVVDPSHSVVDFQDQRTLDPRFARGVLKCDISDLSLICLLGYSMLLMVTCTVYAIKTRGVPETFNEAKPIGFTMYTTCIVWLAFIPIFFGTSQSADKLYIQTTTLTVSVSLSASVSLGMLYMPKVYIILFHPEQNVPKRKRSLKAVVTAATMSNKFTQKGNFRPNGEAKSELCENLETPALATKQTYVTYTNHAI

Compound: NC(CCP(=O)(O)O)C(=O)O [compound 2, L-AP4]
- logEC50 (enhancement of [3H]3 binding by orthosteric agonist) (mGlu4 [1]; 10 nM [3H]3, CHO cells expressing mGlu4, 30 min room temperature, n=3): −6.67 (SE 0.05)

Compound: O=C(Nc1ccc(N2C(=O)c3cccc(F)c3C2=O)c(Cl)c1)c1ccccn1 [compound 4, N-(3-Chloro-4-(4-fluoro-1,3-dioxo-isoindolin-2-yl)phenyl)-2-picolinamide]
- bound fraction of [3H]3, single concentration assay (mGlu4 [2]; higher glutamate concentration, n=9, SE 1.2): 21.4%
- bound fraction of [3H]3, single concentration assay (mGlu4 [2]; lower glutamate concentration, n=9, SE 1.4): 35.4%

Compound: N[C@@H](CCC(=O)O)C(=O)O [compound 1, L-Glutamate acid]
- EC50 (mGlu4 [1]): 832 nM

Compound: COc1cc(NC(=O)c2ccccn2)ccc1Cl [[^3H]3, N-(4-Chloro-3-methoxyphenyl)-2-picolinamide]
- total amount of specific binding at +4 °C and +25 °C (mGlu4 [3]): quite similar at +4 °C and +25 °C
- specific binding at higher temperature (+45 °C) (mGlu4 [3]; +45 °C): drops the specific binding
- ion dependency of specific binding (mGlu4 [4]): related to chloride ion

Reference: PMC4537392 (Neuropharmacology, 2015)
